Laboratory results taken from patent US8008280B2, “Betulinol derivatives as anti-HIV agents” (priority 2004, dated 2011).
Like-named read-outs stand apart in the source and are kept apart here.

How the values were obtained:
[1] = tested on: HIV-1 IIIB isolate; test: HIV-1 inhibitory effect, p24 antigen capture ELISA, acutely infected 174XCEM cells; format: cell-based; conditions: 1 μg/ml (in DMSO); 4 days culture
[2] = tested on: 174XCEM; test: Effect on cell viability, trypan blue dye exclusion; conditions: trypan blue dye exclusion at four days and seven days
Procedure: Human T-B hybridoma cell line 174XCEM was exposed to a low multiplicity of infection (“MOI”) (MOI=1.0) of stock HIV-1 IIIB isolate for 2 hours at 37° C., washed ×3 with phosphate buffered saline (“PBS”), then plated at 250,000 cells/well in the presence of various agents, shown in Table 10. Dimethyl sulfoxide (“DMSO”) buffer was used as a […] control. A commercially available synthetic peptide, thrombospondin peptide (“TSP”), known as having HIV-1 inhibitory activity, was used as an “inhibitory activity” control. Two HIV isolates were used, a patient isolate (“child HIV”), and the standard CXCR4 co-receptor utilizing isolate IIIB.
The cell samples were assessed by trypan blue dye exclusion at four days and seven days.

[3] = tested on: AZT-resistant strain; test: Anti-HIV activity against AZT-resistant patient isolates in MT-2 cells; format: cell-based
Text: These isolates were used to infect MT-2 cells in vitro.

[4] = Solubility in DMSO diluted with culture medium (GC, standard solubility curve); format: physicochemical
Procedure: The residue was dissolved in chloroform analyzed on GC.
Ethyl ether was then evaporated.

[5] = Solubilization in PBS containing human γ-globulin, human albumin and ethanol; format: physicochemical; conditions: 1 × 10^−3 mol/L
[6] = Solubility of betulonic acid in human serum; format: physicochemical; conditions: 1.34 mg in 31 μL neat ethanol diluted with 700 μL human serum; 4.2% final ethanol
[7] = In vivo tolerability in mice with prostate cancer cell xenografts; conditions: final concentration of 22% ethanol and 2×10−3 mol per liter of betulonic acid
[8] = tested on: cells; conditions: cited from earlier work
[9] = tested on: another HIV-1 isolate; test: Effect on 174XCEM cells chronically infected with another HIV-1 isolate; format: cell-based; conditions: chronically infected 174XCEM cells; betulin diacetate single dose 1 μg/ml
Procedure: Agents were also evaluated for an effect on 174XCEM cells chronically infected with another HIV-1 isolate.

[10] = tested on: carcinoma cell line CO-115 of the large intestine; conditions: carcinoma cell line CO-115 (Ukkonen et al.); cited from earlier work
[11] = 1.0 mg in culture medium containing 20% DMSO

## C=C(C)[C@@H]1CC[C@]2(COC(C)=O)CC[C@]3(C)[C@H](CC[C@@H]4[C@@]5(C)CC[C@H](O)C(C)(C)[C@@H]5CC[C@]43C)[C@@H]12 [28-acetoxy betulin, 28-Acetoxy Betulin]
[1]
  anti-HIV-1 activity (HIV-1 gag (p24) antigen, OD units, FIG. 6): anti-HIV-1 activity superior to that previously disclosed in the art for other betulinol derivatives
[2]
  effect on total cell number or cell viability: no effect on total cell number or cell viability

## C=C(C)C1CCC2(C(=O)O)CC[C@]3(C)[C@H](CC[C@@H]4[C@@]5(C)CCC(=O)C(C)(C)[C@@H]5CC[C@]43C)C12 (stereo partly shown) [betulonic acid, Betulonic Acid]
[3]; day 5 (FIG. 14)
  inhibition in the HIV infection, AZT-resistant strain: 44%
[3]; day 8 (FIG. 15)
  inhibition in the HIV infection, AZT-resistant strain: increased further
[4]
  Con. in culture medium containing 20% DMSO: 0.001 mol/L
[4]; 3 mg in culture medium containing 10% FBS with 1% DMSO, supernatant after centrifugation
  amount of betulonic acid dissolved: 0.4 mg
[5]; 1.0 mg, ethanol 220 μL, γ-globulin 1.48 mL, albumin 0.49 mL
  Observation: Cloudy
[5]; 1.3 mg, ethanol 280 μL, γ-globulin (27 mg/mL in PBS) 2.50 mL, albumin (42 mg/mL in PBS) 0 mL
  Observation: Suspension
[6]
  Observation: Clear Solution
[7]
  tolerability: well tolerated
[8]
  cytotoxicity, interfering with the proliferation of cells: cytotoxic

## C=C(C)C1CCC2(C(=O)NCCCCC(NC(=O)OC(C)(C)C)C(=O)O)CC[C@]3(C)[C@H](CC[C@@H]4[C@@]5(C)CCC(=O)C(C)(C)[C@@H]5CC[C@]43C)C12 (stereo partly shown) [Boc-Monomer]
[4]
  Con. in culture medium containing 20% DMSO: 0.001 mol/L
[7]
  tolerability: well tolerated

## C=C(C)[C@@H]1CC[C@]2(COC(C)=O)CC[C@]3(C)[C@H](CC[C@@H]4[C@@]5(C)CC[C@H](OC(C)=O)C(C)(C)[C@@H]5CC[C@]43C)[C@@H]12 [betulin diacetate, Betulin Diacetate]
[9]
  inhibition (release of virus from chronically infected cells): 20%

## Cc1cn([C@H]2C[C@H](N=[N+]=[N-])[C@@H](CO)O2)c(=O)[nH]c1=O [AZT, 3′-azido-3′-deoxythymidine, reference compound]
[3]; day 5 (FIG. 14)
  inhibition in the HIV infection, AZT-resistant strain: ineffective

## C=C(C)[C@@H]1CC[C@]2(CO)CC[C@]3(C)[C@H](CC[C@@H]4[C@@]5(C)CC[C@H](OC(C)=O)C(C)(C)[C@@H]5CC[C@]43C)[C@@H]12 [3-acetoxy betulin, 3-Acetoxy Betulin]
[1]
  anti-HIV-1 activity (HIV-1 gag (p24) antigen, OD units, FIG. 6): anti-HIV-1 activity superior to that previously disclosed in the art for other betulinol derivatives
[2]
  effect on total cell number or cell viability: no effect on total cell number or cell viability

## C=C(C)C1CCC2(COC)CCC3(C)C(CCC4C5(C)CCC(OC)C(C)(C)C5CCC43C)C12 (stereo not shown) [betulin dimethyl ether, Betulin Dimethyl ether]
[1]
  anti-HIV-1 activity (HIV-1 gag (p24) antigen, OD units, FIG. 6): anti-HIV-1 activity superior to that previously disclosed in the art for other betulinol derivatives
[2]
  effect on total cell number or cell viability: no effect on total cell number or cell viability

## C=C(C)C1CCC2(CO)CC[C@]3(C)[C@H](CC[C@@H]4[C@@]5(C)CCC(O)C(C)(C)[C@@H]5CC[C@]43C)C12 (stereo partly drawn) [betulinol, lup-20(29)-ene-3β, 28-diol]
[9]
  inhibition (release of virus from chronically infected cells): minimal effect

## C=C(C)[C@@H]1CC[C@]2(C=O)CC[C@]3(C)[C@H](CC[C@@H]4[C@@]5(C)CCC(=O)C(C)(C)[C@@H]5CC[C@]43C)[C@@H]12 [betulone aldehyde, Betulon Aldehyde]
[9]
  inhibition (release of virus from chronically infected cells): minimal effect

## C=C(C)C1CCC2(C(=O)NCCCCC(NC(=O)C(CCCCNC(=O)C34CCC(C(=C)C)C3[C@@H]3CC[C@H]5[C@]6(C)CCC(=O)C(C)(C)[C@H]6CC[C@]5(C)[C@@]3(C)CC4)NC(=O)OC(C)(C)C)C(=O)O)CC[C@]3(C)[C@H](CC[C@@H]4[C@@]5(C)CCC(=O)C(C)(C)[C@@H]5CC[C@]43C)C12 (stereo partly shown) [Boc-Dimer]
[4]; [11]
  Concentration of drug (mg/mL): 0.6 mg/mL
  Concentration of drug (mol/L): 0.0005 mol/L
[4]; calculated (nominal) concentration
  Con. in culture medium containing 20% DMSO: 0.0005 mol/L

## C=C(C)[C@@H]1CC[C@]2(C(=O)O)CC[C@]3(C)[C@H](CC[C@@H]4[C@@]5(C)CC[C@H](O)C(C)(C)[C@@H]5CC[C@]43C)[C@@H]12 [betulinic acid, Betulinic Acid]
[10]
  cytotoxic activity, LD 50: 0.375 mg/mL
